The source of these data is PubChem BioAssay (NCI).

≈ marks a conversion by molar mass, not a printed value.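 How tested: cells in 96-well plates exposed to compound for 48 hours at five concentrations. At the GI50, growth is halved. TGI is the concentration that stops growth completely.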 Where a SMILES comes first, the peptide text is derived from it. The star is where a group is joined. Boc = CC(C)(C)OC(=O)*; OBn = c1ccc(CO*)cc1 A value given as a limit tells only on which side of the number the result lay.

Test systems include SK-MEL-28 melanoma; COLO 205 colon; UACC-62 melanoma; A498 renal; NCI-H522 lung; SNB-75 CNS; UO-31 renal; M14 melanoma; OVCAR-4 ovarian; MALME-3M melanoma; RPMI-8226 leukemia; UACC-257 melanoma; K-562 leukemia; OVCAR-5 ovarian; EKVX NSCLC; NCI/ADR-RES ovarian; MOLT-4 leukemia; SR leukemia; HL-60(TB) leukemia; MCF7 breast; SF-268 CNS; SF-539 CNS; CCRF-CEM leukemia; HCT-15 colon; SN12C renal; CAKI-1 renal; TK-10 renal; IGROV1 ovarian; OVCAR-3 ovarian; ACHN renal; U251 CNS; MDA-MB-435; HCT-116 colon; T-47D breast; NCI-H226 lung; SW-620 colon; SNB-19 CNS; NCI-H460 lung; HT29 colon; KM12 colon; MDA-MB-231 breast; 786-0 renal; HOP-62 NSCLC; HS 578T breast; SF-295 CNS; A549 NSCLC; NCI-H23 lung.

What all share (assay): NCI-60 cell line screen, 48 h

As for `CC(C)CC(NC(=O)OC(C)(C)C)C(=O)NC(CCC(=O)OCc1ccccc1)C(N)=O` (stereo not drawn) (Boc-Leu-Glu(OBn)-NH2; configuration not given here), the GI50 was 20.8 mg/L (≈ 46.4 µM) with SK-MEL-28 melanoma; 87.1 mg/L (≈ 194 µM) with COLO 205 colon; 47.9 mg/L (≈ 107 µM) in the assay on UACC-62 melanoma; 45.5 mg/L (≈ 101 µM) with A498 renal; 29.4 mg/L (≈ 65.5 µM) with NCI-H522 lung; 32.7 mg/L (≈ 72.8 µM) in the assay on SNB-75 CNS. Moreover, the GI50 in the assay with UO-31 renal is 85.5 mg/L (≈ 190 µM); in the assay on M14 melanoma it was 32.7 mg/L (≈ 72.6 µM); in the assay on OVCAR-4 ovarian it was 34.8 mg/L (≈ 77.4 µM); with MALME-3M melanoma, 32.2 mg/L (≈ 71.6 µM); in the assay on RPMI-8226 leukemia, 43.9 mg/L (≈ 97.6 µM); with UACC-257 melanoma, 20.1 mg/L (≈ 44.7 µM). In addition, in the assay with K-562 leukemia, the GI50 is 54.1 mg/L (≈ 120 µM). Moreover, the values for the TGI with SK-MEL-28 melanoma and with UACC-257 melanoma were 51.4 mg/L and 85.9 mg/L, respectively.
Regarding `Cc1ccc(S(=O)(=O)N2CCN3CCN(CCN(C)CCN4CCN(CC4)CCN(S(=O)(=O)c4ccc(C)cc4)CCN(S(=O)(=O)c4ccc(C)cc4)CCN(S(=O)(=O)c4ccc(C)cc4)CCN(S(=O)(=O)c4ccc(C)cc4)CCN4CCN(CCN(C)CCN5CCN(CC5)CCN(S(=O)(=O)c5ccc(C)cc5)CCN(S(=O)(=O)c5ccc(C)cc5)CCN(S(=O)(=O)c5ccc(C)cc5)CC2)CC4)CC3)cc1`, the TGI with OVCAR-5 ovarian was 3.42 µM; in the assay on EKVX NSCLC it was 5.82 µM; in the assay on NCI/ADR-RES ovarian, more than 100 µM; with MOLT-4 leukemia, 2.91 µM; with SR leukemia, 10.6 µM; in the assay with HL-60(TB) leukemia, 2.7 µM. Further, the TGI in the assay on MCF7 breast amounted to 3.3 µM; in the assay with SF-268 CNS it was 6.62 µM; with SNB-75 CNS, 5.58 µM; with SF-539 CNS it was 4.45 µM; in the assay on RPMI-8226 leukemia it was 11.9 µM; in the assay on CCRF-CEM leukemia, 0.972 µM. Besides, the TGI in the assay with HCT-15 colon came to 2.82 µM; in the assay with K-562 leukemia, 11 µM.
Turning to `COc1cccc2c1C(=O)c1c(O)c3c(c(O)c1C2=O)C[C@@](O)(/C(C)=N/NC(=O)c1ccc(Cl)c(Cl)c1)C[C@@H]3OC1CC(N)C(O)C(C)O1` (some centres not stated), the TGI with SN12C renal is 0.877 µM; with OVCAR-5 ovarian, 0.686 µM; in the assay on EKVX NSCLC, 7.4 µM; in the assay with NCI/ADR-RES ovarian it was 2.84 µM; in the assay with SK-MEL-28 melanoma it was 0.274 µM; in the assay with CAKI-1 renal, 0.562 µM. In addition, the TGI in the assay on HL-60(TB) leukemia was 0.397 µM; in the assay with TK-10 renal, 1.83 µM; in the assay with IGROV1 ovarian it was more than 100 µM; in the assay with OVCAR-3 ovarian it was 0.934 µM; with ACHN renal it was 0.256 µM; in the assay on U251 CNS, 0.363 µM. Moreover, the TGI with COLO 205 colon is 1.5 µM; with MDA-MB-435, 1.11 µM; in the assay on HCT-116 colon it was 1.04 µM; in the assay with T-47D breast, more than 100 µM; with UACC-62 melanoma it was 0.34 µM; in the assay on NCI-H226 lung, 0.231 µM. The TGI in the assay with MCF7 breast was more than 100 µM; in the assay on SW-620 colon, 1.35 µM; in the assay with SNB-19 CNS, 0.445 µM; in the assay with NCI-H460 lung, more than 100 µM; with SNB-75 CNS it was 2.02 µM; with HT29 colon it was 0.379 µM. The TGI is 0.624 µM with KM12 colon; 2.51 µM in the assay with MDA-MB-231 breast; more than 100 µM in the assay with UO-31 renal; 2.1 µM with 786-0 renal; 1.28 µM with HOP-62 NSCLC; 3.18 µM in the assay with HS 578T breast. Also, the TGI turned out to be 1.2 µM with M14 melanoma; 0.527 µM in the assay with SF-295 CNS; 0.0838 µM in the assay with MALME-3M melanoma; 2.68 µM with A549 NSCLC; 0.618 µM in the assay on NCI-H23 lung; 1.16 µM in the assay with HCT-15 colon. Further, the TGI stood at 1.05 µM with UACC-257 melanoma and 1.06 µM in the assay with K-562 leukemia.
